Results on 1 compound are retold here after paper PMC6940514 (Angewandte Chemie (International ed. in English), 2019).

One assay deals with S. pyogenes. Kind of assay: Antibacterial activity. It counts as cell-based. As to conditions: Streptococcus pyogenes.
The next assay concerns Gram-negative bacteria. To be noted: general statement, no reference given; cited from earlier work.
Another assay deals with S. pneumoniae. The assay is described as follows: Antibacterial activity. It counts as cell-based. To be noted: Streptococcus pneumoniae.

The MIC is the lowest concentration found to suppress growth. Low values mean greater potency, high ones weaker potency. For `C=C(NC(=O)C(=C)NC(=O)c1csc(C2=N[C@@H]3c4csc(n4)[C@H]4NC(=O)c5csc(n5)[C@H]([C@](C)(O)[C@@H](C)O)NC(=O)[C@H]5CSC(=N5)/C(=C/C)NC(=O)[C@H]([C@@H](C)O)NC(=O)c5csc(n5)[C@]3(CC2)NC(=O)[C@H](C)NC(=O)C(=C)NC(=O)[C@H](C)NC(=O)[C@H]([C@@H](C)CC)N[C@@H]2C=Cc3c([C@H](C)O)cc(nc3[C@H]2O)C(=O)O[C@@H]4C)n1)C(N)=O` [Compound 1, Thiostrepton], the MIC against S. pyogenes and against S. pneumoniae was under 1 ng/mL in each case. Also, the “activity against Gram-negative bacteria” value with Gram-negative bacteria was “inactive”.
